# In patent US7855233B2 (Teva Pharmaceutical Industries, Ltd., priority 2009, dated 2010):
# Counter-ions that a name gives are not always drawn. Like-named read-outs stand apart in the source and are kept apart here.
# Experiments:
# [1] = Free rasagiline base in citrate salt preparations (toluene extraction, TLC, pH); details: for Content of extractable base (toluene) % on total base content: by ratio base to acid mole:mole
# [2] = from references, cited from earlier work
# [3] = Exposure of citrate salts to atmospheric air in open dishes at ambient temperature; type: physicochemical; details: for Changes on exposure to atmosphere (appearance): ambient temperature, open dish
# Excerpt: (§1) The changes were observed and recorded.
# [4] = Storage of citrate salts in sealed glass vials in refrigerator; type: physicochemical; details: 7±2° C., sealed vial
# Excerpt: as §1
# [5] = Aqueous salt solutions held at +5° C.; type: physicochemical; details: 15 hrs at +5° C.
# Experimental: (§2) 3.02 g of Citric acid was dissolved in 4 ml deionized water. […] Exothermic effect was observed (temperature rose from 22 to 25° C.), and most of the solid was dissolved. Then the mixture was heated to 42° and complete dissolution of the solid was observed. The resulting clear viscous syrup-like solution was held in refrigerator at +5° C. overnight.
# 3.45 g of Citric acid was dissolved in 5 ml deionized water and pre-heated to 30° C. […] Exothermic effect was observed (temperature rose from 30 to 36° C.), and the solid was dissolved. The resulted clear viscous syrup-like solution was held in refrigerator at +5° C. overnight.
# as §2, with “3.46” for “3.02”, “5” for “4”, “27°” for “25°”, “46° C. 0.5 ml water was added” for “42°”
# [6] = Aqueous / water solubility; details: aqueous citric acid reaction solution
# physchem = details: water
# [7] = target: B-form of the enzyme monoamine oxidase (“MAO-B”) (Homo sapiens, UniProt P27338); details: reported in prior patents; cited from earlier work
# [8] = cited from earlier work
# Chain of B-form of the enzyme monoamine oxidase (“MAO-B”) (P27338 whole entry, species assumed): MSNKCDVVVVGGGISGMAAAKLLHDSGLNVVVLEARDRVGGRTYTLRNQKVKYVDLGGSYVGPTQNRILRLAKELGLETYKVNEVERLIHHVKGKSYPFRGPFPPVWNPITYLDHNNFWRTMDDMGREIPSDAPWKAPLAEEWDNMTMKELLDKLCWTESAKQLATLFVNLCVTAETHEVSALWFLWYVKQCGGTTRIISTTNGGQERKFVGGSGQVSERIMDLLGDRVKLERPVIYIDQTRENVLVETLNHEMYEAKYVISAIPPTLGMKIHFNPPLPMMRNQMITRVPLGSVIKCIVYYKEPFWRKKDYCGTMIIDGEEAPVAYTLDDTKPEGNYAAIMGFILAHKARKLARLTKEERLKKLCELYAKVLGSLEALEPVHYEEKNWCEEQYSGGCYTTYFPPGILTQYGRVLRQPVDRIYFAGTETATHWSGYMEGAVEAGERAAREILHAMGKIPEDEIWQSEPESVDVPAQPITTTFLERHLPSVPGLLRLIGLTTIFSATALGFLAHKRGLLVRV
compound,measurement,setting,value
"C#CCNC1CCc2ccccc21.C#CCNC1CCc2ccccc21.O=C(O)CC(O)(CC(=O)O)C(=O)O (stereo not drawn) [Di-citrate, di-rasagiline citrate]",Content of extractable base (toluene) % on total base content,[1],22.0%
Cl [Chloride],Hygroscopicity by KF,[2]; Table 8c,Not hygroscopic
C#CCN[C@@H]1CCc2ccccc21.C#CCN[C@@H]1CCc2ccccc21.O=C(O)CC(O)(CC(=O)O)C(=O)O [Example 4c],Changes on exposure to atmosphere (appearance),[3]; 0:00 hrs:min,Powder
same,Changes on exposure to atmosphere (appearance),[3]; 0:50-1:00 hrs:min,Powder
same,Changes on exposure to atmosphere (appearance),[3]; 0:30 hrs:min,Powder
same,Changes on exposure to atmosphere (appearance),[3]; 1:50-2:00 hrs:min,Powder
same,Changes on exposure to atmosphere (appearance),[3]; 5:00 hrs:min,Lump powder
same,Appearance stored in refrigerator,[4]; 0 month,White powder
same,Appearance stored in refrigerator,[4]; 3 months,White powder
same,Appearance stored in refrigerator,[4]; 6 months,White powder
same,precipitation from solution,[5],No precipitation
C#CCN[C@@H]1CCc2ccccc21.O=C(O)CC(O)(CC(=O)O)C(=O)O [Example 4b],Changes on exposure to atmosphere (appearance),[3]; 0:00 hrs:min,Powder
same,Changes on exposure to atmosphere (appearance),[3]; 1:50-2:00 hrs:min,Semi-solid
same,Changes on exposure to atmosphere (appearance),[3]; 6:00 hrs:min,Syrup
same,Changes on exposure to atmosphere (appearance),[3]; 7:00 hrs:min,Syrup
same,Appearance stored in refrigerator,[4]; 0 month,White powder
same,Appearance stored in refrigerator,[4]; 3 months,White powder
same,Appearance stored in refrigerator,[4]; 6 months,White powder
same,precipitation from solution,[5],No precipitation
"C#CCN[C@@H]1CCc2ccccc21 [Rasagiline, R(+)-N-propargyl-1-aminoindan]",dissolves in aqueous reaction solution,[6],more than 10 wt %
same,Hygroscopicity by KF,[2]; Table 8b,Not hygroscopic
same,solubility,physchem,~2000 µg/mL
same,inhibition of MAO-B,[7],selective inhibitor
C#CCN[C@@H]1CCc2ccccc21.C#CCN[C@@H]1CCc2ccccc21.O=S(=O)(O)CCS(=O)(=O)O [Edisilate],Hygroscopicity by KF,[2]; Table 8c,Not hygroscopic
C#CCN[C@@H]1CCc2ccccc21.C#CCN[C@@H]1CCc2ccccc21.C#CCN[C@@H]1CCc2ccccc21.O=C(O)CC(O)(CC(=O)O)C(=O)O [Example 4d],Changes on exposure to atmosphere (appearance),[3]; 0:00 hrs:min,Powder
same,Changes on exposure to atmosphere (appearance),[3]; 0:30 hrs:min,Powder
same,Changes on exposure to atmosphere (appearance),[3]; 5:00 hrs:min,Semi-solid
same,Changes on exposure to atmosphere (appearance),[3]; 6:00 hrs:min,Semi-solid
same,Appearance stored in refrigerator,[4]; 0 month,White powder
same,Appearance stored in refrigerator,[4]; 3 months,White powder
same,Appearance stored in refrigerator,[4]; 6 months,White powder
same,precipitation from solution,[5],No precipitation
"C#CCN[C@@H]1CCc2ccccc21.O=C(O)CC(O)(CC(=O)O)C(=O)O [Mono-citrate, mono-rasagiline citrate]",Content of extractable base (toluene) % on total base content,[1],1.75-3.6%
rasagiline maleate,Water solubility (mg/ml),"[8]; Table 8c, from references",>=1000 mg/ml
same,solubility,"[8]; as described in U.S. Pat. No. 6,630,514",not less than 1000 mg/ml water
"C#CCN[C@@H]1CCc2ccccc21 [Mesylate, Rasagiline mesylate]",Hygroscopicity by KF,[2]; Table 8c,Not hygroscopic
C#CCN[C@@H]1CCc2ccccc21.O=C(O)CC(O)(CC(=O)O)C(=O)O [Example 5.1],Extracted R-PAI (%),"[1]; free base extracted with toluene, solvent and citric acid:base mole proportions per example",0.06 g-1.75%
Oxalate,Hygroscopicity by KF,[2]; Table 8c,Not hygroscopic
"O=C(O)CC(O)(CC(=O)O)C(=O)O [Citric Acid, Citric acid]",Hygroscopicity by KF,[2]; Table 8b,low
rasagiline citrate,hygroscopicity (in words),[3]; exposed to air/humidity at ambient temperature,highest hygroscopicity
"C#CCNC1CCc2ccccc21.C#CCNC1CCc2ccccc21.C#CCNC1CCc2ccccc21.O=C(O)CC(O)(CC(=O)O)C(=O)O (stereo not drawn) [Tri-citrate, tri-rasagiline citrate]",Content of extractable base (toluene) % on total base content,[1],42.7%
Tosylate,Water solubility,"[8]; Table 8c, from references",60000 to 70000 µg/mL
